# Assay results: ChEMBL document CHEMBL3098125, “Synthesis, anti-HIV activity, integrase enzyme inhibition and molecular modeling of catechol, hydroquinone and quinol labdane analogs” (Bioorg Med Chem Lett, 2014)
# Active and inactive are the calls of the source. No cut-off for these calls is given here.
# Columns and labels:
# [1] = test system: Human immunodeficiency virus 1; test: Antiviral activity against HIV1 NL4.3 infected in human TZM-bl cells expressing CXCR4-tropic at 50 uM incubated for 1 hr prior to infection measured after 48 hrs by luciferase reporter gene assay; assay type: functional, organism-based
# [2] = Cytotoxicity against human TZM-bl cells assessed as cell viability after 48 hrs by MTT assay; assay type: cell-based; conditions: for CC50 at 48 h: TZM-bl cells
# [3] = test system: Human immunodeficiency virus 1; test: Antiviral activity against HIV1 NL4.3 infected in human TZM-bl cells expressing CXCR4-tropic incubated for 1 hr prior to infection measured after 48 hrs by luciferase reporter gene assay; assay type: functional, organism-based; conditions: Human immunodeficiency virus 1, NL4.3, TZM-bl
# [4] = Therapeutic index, ratio of CC50 for human TZM-bl cells to IC50 for HIV1 NL4.3 infected in human TZM-bl cells; assay type: cell-based; conditions: HIV1 NL4.3 infected TZM-bl cells, read-out: Ratio CC50/IC50
# [5] = target: Human immunodeficiency virus type 1 integrase (Human immunodeficiency virus 1) (UniProt Q7ZJM1); test: (§1) Inhibition of HIV1 integrase
# Sequence of Human immunodeficiency virus type 1 integrase (Human immunodeficiency virus 1) (Q7ZJM1 as listed by the source): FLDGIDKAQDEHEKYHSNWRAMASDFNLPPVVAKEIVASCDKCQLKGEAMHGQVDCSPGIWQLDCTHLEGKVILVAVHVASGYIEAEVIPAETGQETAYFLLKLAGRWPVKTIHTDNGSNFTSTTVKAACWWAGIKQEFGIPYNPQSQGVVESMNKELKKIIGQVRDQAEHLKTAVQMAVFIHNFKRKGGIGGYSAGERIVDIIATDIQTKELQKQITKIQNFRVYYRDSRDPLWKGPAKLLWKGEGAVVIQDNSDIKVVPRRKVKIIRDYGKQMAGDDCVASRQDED
# [6] = target: Human immunodeficiency virus type 1 integrase (Human immunodeficiency virus 1, UniProt Q7ZJM1); test: as §1
# Sequence of Human immunodeficiency virus type 1 integrase (Q7ZJM1 whole entry): as the sequence (Q7ZJM1 as listed by the source) above
IC50 ([3]; read-out: IC50),IC50 ([3]; read-out: pIC50 (converted)),inhibition [5],IC50 [6],Compound,Activity [1],"CC50 ([2]; tzm, 48 h)",selectivity ratio [4],CC50 at 48 h [2]
,,,,CC(C)=CCCC1=CCc2c(O)ccc(O)c2C1,inactive,Not Active,,
172 µM,170 µM,,,COC(=O)C12C=CC(=O)C(O)=C1CC(CC/C=C(\C)C=O)=CC2 (stereo not drawn),,,4,625 µM
171 µM,170 µM,,,COC(=O)C12C=CC(=O)C(O)=C1CC(CCC=C(C)C)=CC2 (stereo not drawn),,,4,693 µM
5 µM,5.01 µM,,,COC(=O)C12C=CC(=O)C(O)=C1CC=C(C)C2CC=C(C)C (stereo not drawn),,,11,56.4 µM
36.7 µM,36.3 µM,,,COC(=O)C12C=CC(=O)C(OC(C)=O)=C1CC=C(C)C2CC=C(C)C (stereo not drawn),,,18,677 µM
0.5 µM,0.501 µM,,,Cc1nnc(C(=O)NC(C)(C)c2nc(C(=O)NCc3ccc(F)cc3)c(O)c(=O)n2C)o1,,,,856 µM
72.7 µM,72.4 µM,,,COC(=O)C12C=CC(=O)C(O)=C1CC=C(C)C2C/C=C(\C)CO (stereo not drawn),,,13,928 µM
4.6 µM,4.57 µM,Dose-dependent effect,11.1 µM,CC(C)=CCC1C(C)=CCc2c1ccc(O)c2O (stereo not drawn),,,46,211 µM
12.3 µM,12.3 µM,Dose-dependent effect,13.4 µM,CC(C)=CCCC1=CCc2ccc(O)c(O)c2C1,,,11,138 µM
60.7 µM,60.3 µM,,,COC(=O)C12C=CC(=O)C(O)=C1CC=C(C)C2C/C=C(\C)C=O (stereo not drawn),,,10,627 µM
12.4 µM,12.3 µM,Dose-dependent effect,11.5 µM,CC(C)=CCC1C(C)=CCc2c(O)ccc(O)c21 (stereo not drawn),,,11,140 µM
285 µM,282 µM,,,COC(=O)C12C=CC(=O)C(O)=C1CC(CC/C=C(\C)CO)=CC2 (stereo not drawn),,,1,383 µM
10 µM,10 µM,,,C=C(C=O)[C@@H]1C[C@@]2(C)C(=CC1=O)[C@H](OC(=O)/C(C)=C/C(C)CCCC)CC[C@@H]2C(=O)O (stereo partly drawn),,,,
